A melting point compilation (Tetko et al.; mined from patent text by program, amines drawn as free bases though some values may be those of a salt)

Structure (SMILES) | melting point [°C]
Cc1ccc(NC(=O)C(C)(C)C)c(-c2cccc(-c3cc(C)ccc3NC(=O)C(C)(C)C)n2)c1 | 181 to 184
COc1cc(OCCCCl)ccc1C(C)=O | 47 to 49
NC(=O)c1ccc2c(c1)C1(COc3cc4c(cc31)OCCO4)C(=O)N2Cc1ccccn1 (stereo unspecified) | 220 to 222
O=C(NCCCCCCOC(=O)Oc1ccc([N+](=O)[O-])cc1)OC1CCN(C(=O)Oc2ccc(Oc3ccccc3)cc2)CC1 | 117 to 120
COc1c(Cl)ncnc1OCCc1ccc(Cl)cc1 | 70 to 71
CCOC(=O)C1C2C1S(=O)(=O)CC2(N)C(=O)OCC (stereo unspecified) | 80 to 83
CC[C@@H](C)[C@H](N)C(=O)N1CC(F)(F)C(F)(F)C1 | > 250
O=C(O)C=Cc1cc([N+](=O)[O-])c(F)cc1Cl | 164 to 171
CC(C)(C)OC(=O)N1CCO[C@@H](c2ccc(C#N)cc2)C1 | 104
O=C(CON1C(=O)c2ccccc2C1=O)NOCc1ccccc1 | 118 to 120
C/C(=C\C(=O)Nc1ccccc1C(=O)O)c1ccc(OC(F)F)c(OC(F)F)c1 | 170 to 173
CCOC(=O)c1cnc(N2CCC[C@H]2CO)nc1NCc1ccc(OC)c(Cl)c1 | 88 to 90
CCSc1cn(C)cc(-c2ccc(Cl)c(C(F)(F)F)c2)c1=O | 115 to 116
COc1ccc(CN2C(=O)C(C)(c3cc(NC=O)ccc3Cl)c3cc(Cl)ccc32)c(OC)c1 (stereo unspecified) | 190
O=C(Cl)N1CCC1Oc1ccc(C(F)(F)F)cc1Cl (stereo unspecified) | 86 to 88
COC(=O)c1ccccc1SC1=C(O)CC(CCC(C)C)(c2ccccc2)OC1=O (stereo unspecified) | 115 to 116
ON=Cc1c(C(F)(F)F)ccc(F)c1F | 111 to 112
Cc1nc2ccccc2n(-c2ccc(Cl)cc2)c1=O | 185 to 187
CCOCC(=O)Nc1nc[nH]c1-c1n[nH]c(-c2ccc(-c3ccccc3)cc2)n1 | 280
Cc1cnc2c(Br)c(NC3=NCCN3)ccc2n1 | 260
Nc1nc2c(s1)CCNCC2 | 150 to 160
O=CNNc1ccc(NC(=S)N2CCOCC2)cc1 | 204 to 206
CCOc1ccccc1CNc1nc(N)n2nc(-c3ccco3)nc2n1 | 243 to 246
Cc1c(NC(=O)c2ccc(-c3ccc(F)cc3)cc2)ccc2cc(CN3CCC(CC(N)=O)CC3)cnc12 | 258 to 260
O=C(O)C1=CC(CF)(CF)Oc2ccc(C(F)(F)F)cc21 | 159 to 161
CCCCOCCOc1ccc(-c2ccc3c(c2)C=C(C(=O)O)CCN3C(=O)CNC(C)=O)cc1 | 196 to 201

Structure (SMILES) | melting point [°C]
CC(=O)c1cc(N(C)C)ccc1NC(=O)c1ccc(OCc2ccccc2)cc1 | 139 to 140
CCS(=O)c1nsc(NC(=O)N(C)C)c1C#N (stereo unspecified) | 162 to 163
CCCn1nnn(-c2cc(OCC#CI)c(Cl)cc2Cl)c1=O | 134 to 138
COC(=O)C(CNC(C)=O)C1CCC(c2ccccc2)CC1 (stereo unspecified) | 75 to 80
O=c1cc(-c2ccccc2)[nH]c2c(O)c(O)ccc12 | 270 to 274
O=C(c1cnoc1C1CC1)c1ncc(Cl)cc1Cl | 74 to 75
CC(C)(C(=O)O)n1c(=O)[nH]c2cc(Cl)ccc2c1=O | 260 to 263
CCS(=O)(=O)Nc1ccc([N+](=O)[O-])cc1OC1CCCCC1 | 94 to 95
Cc1cc(-c2nc3c(F)c(F)ccc3s2)ccc1N | 204 to 205
CCC1(O)CC(=O)OCc2c1cc1n(c2=O)Cc2c-1nc1ccccc1c2-c1ccccc1 (stereo unspecified) | > 250
Nc1nc(Cl)c2ncn(COCCOCCOC(=O)c3ccccc3)c2n1 | 111 to 112
OCc1ncc2n1CCC2 | 110 to 120
CCCCCCCCOc1ccc(-c2ncc(O)cc2Cl)cc1 | 128 to 130
CCCCCCCCc1cc2cc(O)ccc2c(Oc2ccc(/C=C/C(=O)O)cc2)c1-c1ccccc1 | 163 to 164
CC(=O)N1c2c(ccn3c(C)c(C)nc23)[C@@H](O)[C@H](O)[C@H]1c1ccccc1 | 260 to 261
COC(=O)c1ccc(-c2nnc(-c3ccc(OC(F)(F)C(F)(F)F)cc3)o2)cc1 | 185 to 191
C[C@@H]1C(=O)N(CC(=O)CCc2ccccc2)[C@H]1SCc1ccccc1 (relative stereo) | 69 to 71
CSC(=Nc1ccccc1)Nc1ccccc1 | 105 to 106
CC(=O)CCC(=O)N(C)c1nnc(-c2cccnc2)s1 | 146 to 147
C#CCOCCn1c(CN2CCN(C)CC2)nc2cccnc21 | 117
CC12CCC(=O)C([N+](=O)[O-])=C1CCC1C2CCC2(C)C(C(O)CO)CCC12 (stereo unspecified) | 183 to 185
O=C(CNC(=O)C(Cc1ccccc1)P(=O)(O)O)OCc1ccccc1 (stereo unspecified) | 208 to 228
CCCCCCCCCCCCCCN=C=O | 100 to 104
COC1(c2cc(F)cc(OCc3ccc4c(c3)CCC(=S)N4C)c2)CCOCC1 | 136 to 138
Cc1cc(Oc2ccccc2)nc2ccccc12 | 101
CC(=O)Nc1cc(F)c(OC(F)F)cc1[N+](=O)[O-] | 72 to 74

Structure (SMILES) | melting point [°C]
CCCCNc1ncc(C(=O)c2ccc(N)c([N+](=O)[O-])c2)s1 | 198 to 203
CC(C)C1C(=O)N(CSc2ccccc2)S(=O)(=O)N1C (stereo unspecified) | 82 to 83
CC(C)C1OC(=Nc2nccs2)c2c1nc1c(C(F)(F)F)cccc1c2O (stereo unspecified) | 246 to 248
C#CCNC(=O)NC1CCC(=O)c2sccc21 (stereo unspecified) | 170 to 183
CS(=O)(=O)c1ccc(C(=O)C(=O)c2ccc(F)cc2)cc1 | 174 to 175
C=CCOc1ccc(OC[C@H]2CC[C@H](C=C)CC2)c(F)c1F | 27.3
COC(=O)c1ncc[nH]1 | 187 to 188
O=C(OCc1ccccc1)C1CCCc2[nH]c3ccccc3c21 (stereo unspecified) | 108 to 112
Cc1cc(N2C(=O)N(CCCCCCCCCSCCCC(F)(F)C(F)(F)F)C(C)(C)C2=O)ccc1NS(=O)(=O)NC(=O)OC(C)(C)C | 122 to 124
COc1ccc(C(Cc2cc(Cl)nc(Cl)c2)=NO)cc1OC1CCCC1 | 139 to 140
CNC(=NC#N)NCCCCCc1csc(NC(=N)N)n1 | 109 to 113
CCCCOC(=O)c1c(CBr)nc2cc(OC)c(OC)cc2c1-c1ccc(OC)c(OC)c1 | 160 to 161
CC(C)(C)C(=O)Nc1ccc(O)cc1 | 168 to 170
CC(=O)OC1CSC(Oc2ccc(-c3ccoc3)cc2F)C(OC(C)=O)C1OC(C)=O (stereo unspecified) | 137
COc1cc(F)ccc1-c1ccc(S(=O)(=O)N2c3ccccc3CC2C(=O)NCCOc2ccc(C(=O)OC(C)(C)C)cc2)cc1 (stereo unspecified) | 86
CCCCCCCCCCCCn1nnc(NC(=O)CS(=O)(=O)Nc2c(C(C)C)cccc2C(C)C)n1 | 138 to 140
Cc1ccc(NS(=O)(=O)c2cccs2)c2[nH]c(C(=O)NCCSC(c3ccccc3)(c3ccccc3)c3ccccc3)cc12 | 241 to 242
CCCOc1cccc(CCCOc2ccc3c(c2)C=C(C(=O)O)CCS3(=O)=O)c1 | 128 to 131
Cc1cnc(C)n1CC(=O)c1ccc(-c2ccc(N3C[C@H](Cn4ccnn4)OC3=O)cc2F)cn1 | 112 to 115
O=C(NCc1cccnc1)c1cc(N2CCN(Cc3ccc(F)cc3)C2=O)n[nH]1 | 251 to 253
Cc1ccc(C(=O)c2cccc(C)c2N)cc1 | 77 to 78
C#CCOc1ccc(C)cc1S(N)(=O)=O | 169 to 170
CC(=O)Nc1cc2c(cc1[N+](=O)[O-])OC(C)(C)[C@@H](O)[C@@H]2N (relative stereo) | 258 to 261
COc1ccc2c(c1)C(=O)CCC21CCC(=O)N(C)C1=O (stereo unspecified) | 116 to 118
CCCOc1ccccc1CCCOc1ccc2c(c1)C=C(C(=O)O)CCS2(=O)=O | 153 to 157
Cc1nc(-n2ccc(OCCC3CC3)cc2=O)sc1C(=O)NCc1ccc(F)cc1 | 172 to 174

Structure (SMILES) | melting point [°C]
CCc1cc(C(=O)CBr)ccc1O | > 260
Cc1ccc(-n2c(=O)c(N)nc3cccnc32)cc1 | > 250
COc1c(C)cnc(Cn2cc(C#CCC(C)(C)O)c3c(Cl)nc(N)nc32)c1C | 163 to 165
Cc1nc2nccc(-c3cccs3)n2n1 | 184 to 185
CCc1nn(Cc2nnc(N)o2)c(CC)c1Oc1cc(Cl)cc(Cl)c1 | 226 to 228
COCCOc1c(S(C)(=O)=O)ccc(C(=O)c2cnn(C)c2O)c1C | 112 to 114
c1cncc(-c2ccnc3nc(N4CCNCC4)nn23)c1 | 156 to 158
CC(C(=O)O)c1cc(F)c([N+](=O)[O-])cc1[N+](=O)[O-] (stereo unspecified) | 141 to 142
CCn1c(=O)nc(C(C)C)c2cc3c(cc21)OCO3 | 180 to 185
Cc1c(SCc2ccc(C(C)(C)C)cc2)cnn(C(C)(C)C)c1=O | 91 to 92
Nc1nc2ccccc2c2c1ncn2CCOC/C=C/c1ccccc1 | 184
O=C1OCCC1=Cc1ccccc1OCC(O)CN1CCC(c2ccc3ccccc3c2)CC1 (stereo unspecified) | 127 to 128
Cc1cc2cc(CN3CCCC3)cnc2cc1NC(=O)c1ccc(-c2cc3ccccc3o2)cc1 | 219
Cc1cccc2c(-c3ccc(Cl)cc3)nccc12 | 122 to 124
CCOC(=O)C1=C(C)NC(C=O)=C(C(=O)OCC)C1c1ccccc1OC (stereo unspecified) | 111 to 112
Cc1ccc(C(=O)NC(NC(=NC#N)Nc2ccc(Cl)nc2)C(C)(C)C)cc1 (stereo unspecified) | 194 to 196
Cc1c(Cc2ccc([N+](=O)[O-])cc2)c(=O)oc2cc(OCc3nnn[nH]3)cc(OCc3nnn[nH]3)c12 | 240 to 244
Cc1c(C)c2c(c(C)c1OCc1ccccc1)CC(CCN1C(=O)c3ccccc3C1=O)O2 (stereo unspecified) | 108 to 110
CC(C)(C)OC(=O)N[C@@H](C(=O)N1CCC[C@H]1C(=O)NC1CCc2n[nH]cc2C1)C(c1ccccc1)c1ccccc1 (stereo partly specified) | 119 to 122
O=S(=O)(Cc1ccc(Br)cc1)c1nc(-c2ccncc2)ns1 | 173
Cc1oc(-c2ccccc2)nc1CCOc1ccc(C=C2SC(=O)NC2=O)cc1 | 213 to 214
COC(=O)c1ccc(Oc2ccc(N3CCN(c4ccncc4)CC3)cc2)nc1 | 143 to 144
COc1cc(NC(=O)OC(C)(C)C)c(N)cc1-c1cc(F)ccc1F | 144
